ChEMBL document CHEMBL5729275 (2022)
pEC50: −log10 of the molar value.

Assay: RSV-A Assay : Hep-2 cells, (originally derived from tumors grown in irradiated-cortisonised weanling rats that had been injected with epidermoid carcinoma tissue from a person's larynx, but later found to be indistinguishable from HeLa cells by PCR DNA analysis), were used for the culturing of genotype A, “Long” strain RSV. Flasks were inoculated with RSV and viral stocks were collected once cytopathic effect (CPE) was greater than 90%. Viral stocks in 25% sucrose media were snap frozen using liquid nitrogen to increase viral stability. Viral stock titers were quantified by tissue culture infectious dose 50% (TCID50) using 8,000 cells per well and 3-fold viral dilutions across a 96-well plate, cultured for 4 days. Viral stock titers were also quantified by a plaque forming unit assay, as described elsewhere.Following extensive parameter testing, the final assay is run as follows: Hep-2 cells are seeded into the inner 60 wells of a 96-well plate at 8,000 cells per well in a volume of 50 μL using Growth Media (DMEM without phenol red, 1% L-Glut, 1% Penn/Strep, 1% nonessential amino acids, 10% heat-inactivated FBS). 2-fold serial dilutions of control and test compounds are added to the wells in duplicate in a total volume of 25 μL. Viral stock is then added to the wells at a multiplicity of infection (MOI) of 0.1 in a volume of 25 μL, bringing the total volume of each well to 100 μL. The MOI is calculated using the PFU/mL, or TCID50 if unavailable. Each 96-well plate has a control column of 6 wells with cells and virus but no compound (negative control, max CPE), a column with cells but no compound or virus (positive control, minimum CPE), and a column with no cells or virus or compound (background plate/reagent control). The control wells with cells but no virus are given an additional […], of growth media containing an equal quantity of sucrose as those wells receiving the viral stock in order to keep consistent in media and volume conditions. The outer wells of the plate are filled with 125 μL of moat media (DMEM, 1% Penn/Strep) to act as a thermal and evaporative moat around the test wells. Following a 5-day incubation period, the plates are read using ATPlite (50 uL added per well), which quantifies the amount of ATP (a measure of cell health) present in each well. Assay plates are read using the Envision luminometer.
For `COc1cc(C(=O)NC[C@](O)(c2cc3c(c(-c4ccc(F)cc4)n2)OC[C@@]3(N)C(F)(F)F)C2CC2)cc2cn(C)nc12`, the pEC50 was greater than 6.70. Molecule `Cc1ccc2cc(C(=O)NC[C@](O)(c3cc4c(c(-c5ccc(F)cc5)n3)OC[C@@]4(N)C(F)(F)F)C3CC3)cc(OC3CC3)c2n1` has a pEC50 greater than 6.70. `Cn1cc2cc(C(=O)NC[C@](O)(c3cc4c(c(-c5ccc(F)cc5)n3)OC[C@@]4(N)C(F)(F)F)C3CC3)cc(F)c2n1` gave a pEC50 greater than 6.70. With `COc1cc(C(=O)NC[C@](C)(O)c2cc3c(c(-c4ccc(F)cc4)n2)OC[C@@]3(N)C(F)(F)F)cc2cccnc12` the pEC50 was greater than 6.70. For `C[C@](O)(CNC(=O)c1ccc(OC2CC2)c(-c2cccnc2)c1)c1cc2c(c(-c3ccc(F)cc3)n1)OC[C@@]2(N)C(F)(F)F`, the pEC50 was greater than 6.70. In the case of `N[C@@]1(C(F)(F)F)COc2c1cc([C@@](O)(CNC(=O)c1ccc(OC3CC3)c(OC3CC3)c1)C1CC1)nc2-c1ccc(F)cc1`, the pEC50 was greater than 6.70. For `N[C@@]1(C(F)(F)F)COc2c1cc([C@@](O)(CNC(=O)c1cc(OC3CC3)c3nn(C4CC4)cc3c1)C1CC1)nc2-c1ccc(F)c(Cl)c1`, the pEC50 was greater than 6.70. Work on `COc1cc(C(=O)NC[C@](O)(c2cc3c(c(-c4ccc(F)cc4)n2)OC[C@@]3(NC(=O)CO)C(F)(F)F)C(F)(F)F)ccc1OC1CC1` yielded a pEC50 greater than 6.70. Work on `N[C@@]1(C(F)(F)F)COc2c1cc([C@@](O)(CNC(=O)c1cc(OC3CC3)c3[nH]c(=O)ccc3c1)C1CC1)nc2-c1ccc(F)cc1` yielded a pEC50 of less than 6.70. In the case of `COc1cc(C(=O)NC[C@](C)(O)c2cc3c(c(-c4ccc(F)cc4)n2)OC[C@@]3(N)C(F)(F)F)ccc1OC1CC1`, the pEC50 was greater than 6.70. `COc1cc(C(=O)NC[C@](O)(c2cc3c(c(-c4ccc(F)cc4)n2)OC[C@@]3(N)C(F)(F)F)C2COC2)ccc1OC1CC1` showed a pEC50 of less than 6.70. `COc1cc(C(=O)NC[C@@](O)(c2cc3c(c(-c4ccc(F)cc4)n2)OC[C@]3(N)C(F)(F)F)C(F)(F)F)ccc1OC1CC1` gave a pEC50 of less than 6.70. `Cn1cc2cc(C(=O)NC[C@](O)(c3cc4c(c(-c5ccc(F)cc5)n3)OC[C@@]4(N)C(F)(F)F)C3CC3)cc(OC3CC3)c2n1` gave a pEC50 greater than 6.70. `COc1cc(C(=O)NC[C@](O)(c2cc3c(c(-c4ccc(F)c(Cl)c4)n2)OC[C@@]3(N)C(F)(F)F)C2CC2)ccc1OC1CC1` showed a pEC50 greater than 6.70. For `COc1cc(C(=O)NC[C@](C)(O)c2cc3c(c(-c4ccc(F)c(F)c4)n2)OC[C@@]3(N)C(F)(F)F)ccc1OC1CC1`, the pEC50 was greater than 6.70. Molecule `C[C@](O)(CNC(=O)c1cc(OC2CC2)c2ncccc2c1)c1cc2c(c(-c3ccc(F)c(Cl)c3)n1)OC[C@@]2(N)C(F)(F)F` has a pEC50 of less than 6.70. Molecule `C[C@](O)(CNC(=O)c1ccc(OC2CC2)c(OC2CC2)c1)c1cc2c(c(-c3ccc(F)c(Cl)c3)n1)OC[C@@]2(N)C(F)(F)F` has a pEC50 greater than 6.70. `Nc1nc2c(F)cc(C(=O)NC[C@](O)(c3cc4c(c(-c5ccc(F)cc5)n3)OC[C@@]4(N)C(F)(F)F)C3CC3)cc2s1` showed a pEC50 greater than 6.70. For `COc1cc(C(=O)NC[C@](O)(c2cc3c(c(-c4ccc(F)cc4)n2)OC[C@@]3(N)C(F)(F)F)C(F)(F)F)ccc1OC1CC1`, the pEC50 was greater than 6.70. Work on `COc1ccc(C(=O)NC[C@](O)(c2cc3c(c(-c4ccc(F)cc4)n2)OC[C@@]3(N)C(F)(F)F)C(F)(F)F)cc1OC` yielded a pEC50 of less than 6.70. For `COc1cc(C(=O)NC[C@](O)(c2cc3c(c(-c4ccc(F)cc4)n2)OC[C@@]3(N)C(F)(F)F)C(C)(C)C)ccc1OC1CC1`, the pEC50 was less than 6.70. `COc1cc(C(=O)NC[C@](O)(c2cc3c(c(-c4ccc(F)cc4)n2)OC[C@@]3(N)C(F)(F)F)C(F)(F)F)ccc1OCC(C)C` gave a pEC50 of less than 6.70. Molecule `CC(C)(C)S(=O)(=O)N[C@@]1(C(F)(F)F)COc2c1cc([C@@](C)(O)CNC(=O)c1cc(OC3CC3)c3ncccc3c1)nc2-c1ccc(F)cc1` has a pEC50 of less than 6.70. `N[C@@]1(C(F)(F)F)COc2c1cc([C@@](O)(CNC(=O)c1cc(OC3CC3)c3ncccc3c1)C1COC1)nc2-c1ccc(F)cc1` showed a pEC50 of less than 6.70. In the case of `COc1cnc(C(=O)NC[C@](O)(c2cc3c(c(-c4ccc(F)cc4)n2)OC[C@@]3(N)C(F)(F)F)C(F)(F)F)cc1OC`, the pEC50 was less than 6.70. `COc1cc(C(=O)NC[C@@](O)(CF)c2cc3c(c(-c4ccc(F)cc4)n2)OC[C@@]3(N)C(F)(F)F)ccc1OC1CC1` showed a pEC50 greater than 6.70. For `COc1cc(C(=O)NC[C@](O)(c2cc3c(c(-c4ccc(F)cc4)n2)OC[C@@]3(N)C(F)(F)F)C2CC2)cc2cccnc12`, the pEC50 was greater than 6.70. For `N[C@@]1(C(F)(F)F)COc2c1cc([C@@](O)(CNC(=O)c1cc(OC3CC3)c3nn(C4CC4)cc3c1)C1CC1)nc2-c1ccc(F)cc1`, the pEC50 was greater than 6.70. With `COc1cc(C(=O)NC[C@](O)(c2cc3c(c(-c4ccc(F)cc4)n2)OC[C@@]3(N)C(F)(F)F)C(F)(F)F)nc2ccccc12` the pEC50 was less than 6.70. Molecule `N[C@@]1(C(F)(F)F)COc2c1cc([C@](O)(CO)CNC(=O)c1cc(OC3CC3)c3ncccc3c1)nc2-c1ccc(F)cc1` has a pEC50 of less than 6.70. In the case of `COc1cc(C(=O)NC[C@](C)(O)c2cc3c(c(-c4ccc(F)cc4)n2)OC[C@@]3(NC(=N)NC#N)C(F)(F)F)ccc1OC1CC1`, the pEC50 was greater than 6.70. Molecule `C[C@](O)(CNC(=O)c1cc(OC2CC2)c2ncccc2c1)c1cc2c(c(-c3ccc(F)cc3)n1)OC[C@@]2(N)C(F)(F)F` has a pEC50 greater than 6.70. With `COc1cc(C(=O)NC[C@@](O)(c2cc3c(c(-c4ccc(F)cc4)n2)OC[C@@]3(N)C(F)(F)F)C(F)(F)F)ccc1OC1CC1` the pEC50 was less than 6.70. `COc1cc(C(=O)NCC(C)c2cc3c(c(-c4ccc(F)c(F)c4)n2)OC[C@@]3(N)C(F)(F)F)ccc1OC1CC1` (stereo partly specified) showed a pEC50 of less than 6.70. `COc1cc(C(=O)NC[C@](O)(c2cc3c(c(-c4ccc(F)cc4)n2)OC[C@@]3(N)C(F)(F)F)C2CC2)cc2sc(N)nc12` gave a pEC50 greater than 6.70. Work on `C[C@](O)(CNC(=O)c1ccc(OC2CC2)c(OC2CC2)c1)c1cc2c(c(-c3ccc(F)c(F)c3)n1)OC[C@@]2(N)C(F)(F)F` yielded a pEC50 greater than 6.70. `COC[C@](O)(CNC(=O)c1ccc(OC2CC2)c(OC)c1)c1cc2c(c(-c3ccc(F)cc3)n1)OC[C@@]2(N)C(F)(F)F` gave a pEC50 greater than 6.70. With `N[C@@]1(C(F)(F)F)COc2c1cc([C@@](O)(CNC(=O)c1cc(OC3CC3)c3c(ccc[n+]3[O-])c1)C1CC1)nc2-c1ccc(F)cc1` the pEC50 was less than 6.70. `Nc1nc2ccc(C(=O)NC[C@](O)(c3cc4c(c(-c5ccc(F)cc5)n3)OC[C@@]4(N)C(F)(F)F)C3CC3)cc2s1` showed a pEC50 greater than 6.70. `N[C@@]1(C(F)(F)F)COc2c1cc([C@@](O)(CNC(=O)c1ccc(OC3CC3)c(OC3CC3)c1)C1CC1)nc2-c1ccc(F)c(Cl)c1` showed a pEC50 greater than 6.70. `COc1cc(C(=O)NC[C@](O)(c2cc3c(c(-c4ccc(F)cc4)n2)OC[C@]3(N)C(F)(F)F)C(F)(F)F)ccc1OC1CC1` gave a pEC50 greater than 6.70.
